According to the supplement of paper PMC10307832:

Tests used:
Experiment in all cases: relative viability (nuclei count vs DMSO), 5 days (fraction); higher = more cells survive
KN-93 = compound: CN(C/C=C/C1=CC=C(C=C1)Cl)CC2=CC=CC=C2N(CCO)S(=O)(=O)C3=CC=C(C=C3)OC [KN-93]
In short: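 Five library-drug doses spaced by √10 were pinned onto vehicle-anchored 1536-well plates of lung cancer cell lines that had been kept overnight at 37 °C. Cells went 5 days without medium change, then were fixed, permeabilised and Hoechst-stained together, imaged at 4× and counted by MetaXpress. Viability is the ratio of treated-well to vehicle-well nuclei, taken as a median over plates. Plates required control CV below 25% and at least one doubling.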

KN-93 + Bortezomib = compound: CN(C/C=C/C1=CC=C(C=C1)Cl)CC2=CC=CC=C2N(CCO)S(=O)(=O)C3=CC=C(C=C3)OC [KN-93] + CC(C)C[C@H](NC(=O)[C@H](Cc1ccccc1)NC(=O)c1cnccn1)B(O)O [Bortezomib] (partner 0.002 µM)
In short: (§1)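 A single step with final 0.05% Triton X-100, 1% formaldehyde and 1 ug/ml Hoechst fixed the cells and stained nuclei 5 days after treatment. Lung cancer cell lines in 1536-well plates had been treated by pin tool the day after seeding with one drug alone or a fixed anchor-drug dose plus five library-drug doses (not always all listed) in √10 steps, and nuclei were counted on 4× images. Relative viability is the ratio of nuclei in treated wells to nuclei in vehicle wells, taken as the median of duplicate plates.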

KN-93 + Navitoclax = compound: CN(C/C=C/C1=CC=C(C=C1)Cl)CC2=CC=CC=C2N(CCO)S(=O)(=O)C3=CC=C(C=C3)OC [KN-93] + CC1(C)CCC(c2ccc(Cl)cc2)=C(CN2CCN(c3ccc(C(=O)NS(=O)(=O)c4ccc(N[C@H](CCN5CCOCC5)CSc5ccccc5)c(S(=O)(=O)C(F)(F)F)c4)cc3)CC2)C1 [Navitoclax] (partner 0.5 µM)
In short: as §1

KN-93 + Foretinib = compound: CN(C/C=C/C1=CC=C(C=C1)Cl)CC2=CC=CC=C2N(CCO)S(=O)(=O)C3=CC=C(C=C3)OC [KN-93] + COc1cc2c(Oc3ccc(NC(=O)C4(C(=O)Nc5ccc(F)cc5)CC4)cc3F)ccnc2cc1OCCCN1CCOCC1 [Foretinib] (partner 0.25 µM)
In short: as §1

KN-93 + Lapatinib = compound: CN(C/C=C/C1=CC=C(C=C1)Cl)CC2=CC=CC=C2N(CCO)S(=O)(=O)C3=CC=C(C=C3)OC [KN-93] + CS(=O)(=O)CCNCc1ccc(-c2ccc3ncnc(Nc4ccc(OCc5cccc(F)c5)c(Cl)c4)c3c2)o1 [Lapatinib] (partner 2 µM)
In short: as §1

KN-93 + Pictilisib = compound: CN(C/C=C/C1=CC=C(C=C1)Cl)CC2=CC=CC=C2N(CCO)S(=O)(=O)C3=CC=C(C=C3)OC [KN-93] + CS(=O)(=O)N1CCN(Cc2cc3nc(-c4cccc5[nH]ncc45)nc(N4CCOCC4)c3s2)CC1 [Pictilisib] (partner 1 µM)
In short: as §1

KN-93 + Crizotinib = compound: CN(C/C=C/C1=CC=C(C=C1)Cl)CC2=CC=CC=C2N(CCO)S(=O)(=O)C3=CC=C(C=C3)OC [KN-93] + C[C@@H](Oc1cc(-c2cnn(C3CCNCC3)c2)cnc1N)c1c(Cl)ccc(F)c1Cl [Crizotinib] (partner 1 µM)
In short: as §1

KN-93 + Linsitinib = compound: CN(C/C=C/C1=CC=C(C=C1)Cl)CC2=CC=CC=C2N(CCO)S(=O)(=O)C3=CC=C(C=C3)OC [KN-93] + C[C@]1(O)C[C@@H](c2nc(-c3ccc4ccc(-c5ccccc5)nc4c3)c3c(N)nccn32)C1 [Linsitinib] (partner 1 µM)
In short: as §1

KN-93 + Alpelisib = compound: CN(C/C=C/C1=CC=C(C=C1)Cl)CC2=CC=CC=C2N(CCO)S(=O)(=O)C3=CC=C(C=C3)OC [KN-93] + Cc1nc(NC(=O)N2CCC[C@H]2C(N)=O)sc1-c1ccnc(C(C)(C)C(F)(F)F)c1 [Alpelisib] (partner 2 µM)
In short: as §1

KN-93 + Olaparib = compound: CN(C/C=C/C1=CC=C(C=C1)Cl)CC2=CC=CC=C2N(CCO)S(=O)(=O)C3=CC=C(C=C3)OC [KN-93] + O=C(c1cc(Cc2n[nH]c(=O)c3ccccc23)ccc1F)N1CCN(C(=O)C2CC2)CC1 [Olaparib] (partner 8 µM)
In short: as §1

Cell Line	relative viability (KN-93; 0.08 µM)	relative viability (KN-93; 0.253 µM)	relative viability (KN-93; 2.53 µM)	relative viability (KN-93; 8 µM)	relative viability (KN-93 + Bortezomib; first compound 0.08 µM)	relative viability (KN-93 + Bortezomib; first compound 0.253 µM)	relative viability (KN-93 + Bortezomib; first compound 2.53 µM)	relative viability (KN-93 + Bortezomib; first compound 8 µM)	relative viability (KN-93 + Navitoclax; first compound 0.08 µM)	relative viability (KN-93 + Navitoclax; first compound 0.253 µM)	relative viability (KN-93 + Navitoclax; first compound 2.53 µM)	relative viability (KN-93 + Navitoclax; first compound 8 µM)	relative viability (KN-93 + Foretinib; first compound 0.08 µM)	relative viability (KN-93 + Foretinib; first compound 0.253 µM)	relative viability (KN-93 + Foretinib; first compound 2.53 µM)	relative viability (KN-93 + Foretinib; first compound 8 µM)	relative viability (KN-93 + Lapatinib; first compound 0.08 µM)	relative viability (KN-93 + Lapatinib; first compound 0.253 µM)	relative viability (KN-93 + Lapatinib; first compound 2.53 µM)	relative viability (KN-93 + Lapatinib; first compound 8 µM)	relative viability (KN-93 + Pictilisib; first compound 0.253 µM)	relative viability (KN-93 + Pictilisib; first compound 2.53 µM)	relative viability (KN-93 + Pictilisib; first compound 8 µM)	relative viability (KN-93 + Crizotinib; first compound 0.08 µM)	relative viability (KN-93 + Crizotinib; first compound 0.253 µM)	relative viability (KN-93 + Crizotinib; first compound 2.53 µM)	relative viability (KN-93 + Crizotinib; first compound 8 µM)	relative viability (KN-93 + Linsitinib; first compound 0.08 µM)	relative viability (KN-93 + Linsitinib; first compound 0.253 µM)	relative viability (KN-93 + Linsitinib; first compound 2.53 µM)	relative viability (KN-93 + Linsitinib; first compound 8 µM)	relative viability (KN-93 + Alpelisib; first compound 0.08 µM)	relative viability (KN-93 + Alpelisib; first compound 0.253 µM)	relative viability (KN-93 + Alpelisib; first compound 2.53 µM)	relative viability (KN-93 + Alpelisib; first compound 8 µM)	relative viability (KN-93 + Olaparib; first compound 0.08 µM)	relative viability (KN-93 + Olaparib; first compound 0.253 µM)	relative viability (KN-93 + Olaparib; first compound 2.53 µM)	relative viability (KN-93 + Olaparib; first compound 8 µM)
Calu-6	0.872	1.09	1.16	0.69	1.1	1.05	1.13	0.633	0.805	0.894	0.951	0.36	0.861	0.997	0.882	0.622	0.932	1.25	1.37	0.567	1.06	1.09	0.454	0.638	1.09	0.786	0.41	0.784	1	1.16	0.904	1.09	1.12	0.981	0.644	0.503	0.546	0.699	0.429
EBC-1	–	1.03	1.01	0.693	0.577	0.492	0.426	0.243	0.375	0.337	0.274	0.178	–	0.0885	0.12	0.124	–	–	0.183	0.233	0.317	0.343	0.224	–	–	0.216	0.192	0.905	0.907	1.07	0.869	0.821	0.889	0.599	0.497	0.652	0.69	0.652	0.52
NCI-H1299	1.01	1.1	1.04	0.796	0.969	1.01	1.05	0.969	1.07	1.04	1.11	1.02	1.12	1.13	1.14	0.904	0.992	1.04	0.952	0.708	1.03	0.656	0.267	0.885	1.14	0.891	0.514	0.959	1.22	1.02	0.861	0.951	1.15	1.09	1.07	0.941	1.06	1	0.594
